This is an account of results in patent US8906925B2, “Pyrido[4,3-B]indoles containing rigid moieties” (Medivation Technologies, Inc., priority 2008, dated 2014).

In assay [1] the target is T1, human recombinant serotonin (5-Hydroxytryptamine) 5-HT2C receptor (Homo sapiens, UniProt P28335).
T1 construct: expressed in transfected cells; host or cells: Chinese hamster ovary (CHO-K1) cells
T1 sequence (P28335 33-458): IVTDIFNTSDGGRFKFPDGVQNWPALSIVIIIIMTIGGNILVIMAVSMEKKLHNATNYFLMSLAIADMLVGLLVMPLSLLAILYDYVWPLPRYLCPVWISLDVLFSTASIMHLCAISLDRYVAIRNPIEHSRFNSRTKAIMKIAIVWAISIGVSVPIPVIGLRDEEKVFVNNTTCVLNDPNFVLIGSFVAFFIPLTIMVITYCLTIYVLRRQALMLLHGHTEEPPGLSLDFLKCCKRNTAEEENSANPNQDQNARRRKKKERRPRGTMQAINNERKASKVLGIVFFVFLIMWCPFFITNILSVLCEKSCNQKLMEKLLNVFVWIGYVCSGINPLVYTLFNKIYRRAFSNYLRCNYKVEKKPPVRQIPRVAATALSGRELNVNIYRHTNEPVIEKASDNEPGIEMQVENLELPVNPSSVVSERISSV
The experiment in a line: Serotonin 5-HT2C radioligand binding ([3H]Mesulergine). To be noted: compound at 0.1 μM; read-out: Inhibition of ligand binding, Serotonin 5-HT2C (percent inhibition of specific binding). The method, boiled down:
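Compounds tested at 1 μM or lower (1% DMSO vehicle) for displacement of 1 nM [3H]Mesulergine over 60 min at 25° C. Specific binding determined by filtration counting, with 1 μM Mianserin defining non-specific binding; values are percent inhibition.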

Assay [2] deals with T2, histamine receptor H1 (Homo sapiens, UniProt P35367). In words: Histamine H1 radioligand binding ([3H]Pyrilamine). The method, boiled down: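 Values are percent inhibition of specific [3H]pyrilamine (1.2 nM) binding with compounds at ≤1 μM (1% DMSO vehicle); 180 min incubation at 25 °C, pH 7.4 Tris buffer, on CHO-expressed human H1 receptor; 1 μM pyrilamine defined nonspecific binding, bound ligand counted after filtration.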
T2 sequence (P35367 whole entry): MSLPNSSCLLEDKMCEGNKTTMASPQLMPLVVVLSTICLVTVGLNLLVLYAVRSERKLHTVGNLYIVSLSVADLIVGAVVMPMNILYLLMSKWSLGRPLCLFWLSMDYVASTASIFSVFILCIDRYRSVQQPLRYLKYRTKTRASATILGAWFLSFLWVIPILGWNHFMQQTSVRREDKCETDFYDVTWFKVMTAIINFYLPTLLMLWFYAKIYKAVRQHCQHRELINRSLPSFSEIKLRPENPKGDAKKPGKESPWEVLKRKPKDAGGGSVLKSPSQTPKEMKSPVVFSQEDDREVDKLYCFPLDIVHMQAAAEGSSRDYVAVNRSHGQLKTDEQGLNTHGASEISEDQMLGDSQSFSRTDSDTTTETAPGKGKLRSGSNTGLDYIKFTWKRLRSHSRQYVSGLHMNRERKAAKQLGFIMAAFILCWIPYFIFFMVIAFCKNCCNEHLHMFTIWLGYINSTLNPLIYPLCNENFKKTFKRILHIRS

Assay [3] concerns the target T3, human recombinant serotonin (5-Hydroxytryptamine) 5-HT2A receptor (Homo sapiens, UniProt P28223).
T3 construct: expressed in transfected cells; host or cells: Chinese hamster ovary (CHO-K1) cells
The experiment in a line: Serotonin 5-HT2A radioligand binding ([3H]Ketanserin). As to the method:
Compounds of the invention were incubated with 0.5 nM [^3H]Ketanserin for 60 min. at 25° C. Non-specific binding was estimated in the presence of 1 μM Mianserin. Receptor proteins were filtered and washed, the filters were then counted to determine [^3H]Ketanserin specifically bound.

For assay [4], the target named is human dopamine D2L receptor (Homo sapiens, UniProt P14416). The experiment in a line: Dopamine D2L radioligand binding ([3H]Spiperone). To be noted: percent inhibition of specific binding, compound at 1 μM. From the text:
Non-specific binding was estimated in the presence of […] Haloperidol. Receptor proteins were filtered and washed, the filters were then counted to determine [^3H]Spiperone specifically bound. […] Biochemical assay results are presented as the percent inhibition of specific binding in Table 9.

Assay [5] deals with T2, histamine receptor H1. The experiment in a line: Inhibition of binding of a ligand (Pyrilamine) to histamine receptor H1. To be noted: as compared to the unsubstituted vinyl counterpart (106 vs compound 415; 85 vs compound 95). As to the method:
The number and extent of undesirable side effects increases with increasing affinity for the H1 receptor Thus, in one aspect, compounds of the formulae herein display reduced, low or no affinity to histamine receptor H1. […] Inhibition of binding of a ligand to H1 for all variations detailed herein is determined by a suitable assay known in the art such as the assay described herein. […] In one variation, compounds of the formulae herein inhibit binding of a ligand to H1 by between about 50% to about 80%. […] In one variation, compounds of the formulae herein inhibit binding of Pyrilamine to H1 as determined in the assay described herein. In a further variation, percent inhibition of binding to H1 is measured by assays detailed herein.
The binding properties of compounds disclosed herein to a panel of aminergic G protein-coupled receptors including adrenergic receptors, dopamine receptors, serotonin receptors, histamine receptors and an imidazoline receptor may be determined. Binding properties may be assessed by methods known in the art, such as competitive binding assays. In one variation, compounds are assessed by the binding assays detailed herein. […]
In one aspect, DDT compounds display low affinity to histamine receptor H1. […] Inhibition of binding of a ligand to H1 for all variations detailed herein is determined by a suitable assay known in the art such as the assay described herein. […]

The target of assay [6] is T4, human recombinant serotonin (5-Hydroxytryptamine) 5-HT6 receptor (Homo sapiens, UniProt P50406).
T4 construct: expressed in transfected cells; host or cells: human HeLa cells
T4 sequence (P50406 whole entry): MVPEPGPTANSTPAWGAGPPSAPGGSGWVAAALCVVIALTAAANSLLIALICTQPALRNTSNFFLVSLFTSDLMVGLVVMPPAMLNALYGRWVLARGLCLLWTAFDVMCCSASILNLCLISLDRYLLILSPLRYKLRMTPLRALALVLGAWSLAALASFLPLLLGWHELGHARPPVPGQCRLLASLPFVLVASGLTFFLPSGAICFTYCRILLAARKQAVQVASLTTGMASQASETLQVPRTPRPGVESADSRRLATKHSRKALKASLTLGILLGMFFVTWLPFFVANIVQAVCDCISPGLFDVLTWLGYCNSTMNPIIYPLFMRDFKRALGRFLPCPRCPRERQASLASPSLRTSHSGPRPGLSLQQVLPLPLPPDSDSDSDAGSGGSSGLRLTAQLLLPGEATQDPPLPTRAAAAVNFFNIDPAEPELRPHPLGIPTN
The experiment in a line: Serotonin 5-HT6 radioligand binding ([3H]LSD). The procedure: Compounds of the invention were incubated with 1.5 nM [3H]Lysergic acid diethylamide (LSD) for 120 min. at 37° C. […] Receptor proteins were filtered and washed, the filters were then counted to determine [3H]LSD specifically bound. Compounds were screened at 1 μM or lower, using 1% DMSO as vehicle. Biochemical assay results are presented as the percent inhibition of specific binding in Table 10.

Chain of human dopamine D2L receptor (P14416 whole entry): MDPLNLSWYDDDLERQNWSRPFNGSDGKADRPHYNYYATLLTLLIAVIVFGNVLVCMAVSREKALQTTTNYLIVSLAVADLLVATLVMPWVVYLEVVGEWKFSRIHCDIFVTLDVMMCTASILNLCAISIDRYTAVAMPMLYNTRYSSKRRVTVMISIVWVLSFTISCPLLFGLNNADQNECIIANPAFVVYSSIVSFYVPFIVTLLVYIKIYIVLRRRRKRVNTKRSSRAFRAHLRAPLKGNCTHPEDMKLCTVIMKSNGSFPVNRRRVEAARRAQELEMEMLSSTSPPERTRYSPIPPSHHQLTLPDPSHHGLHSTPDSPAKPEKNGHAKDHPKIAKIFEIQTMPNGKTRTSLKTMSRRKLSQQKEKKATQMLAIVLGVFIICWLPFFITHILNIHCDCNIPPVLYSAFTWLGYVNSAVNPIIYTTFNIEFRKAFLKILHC
T3 sequence (P28223 whole entry): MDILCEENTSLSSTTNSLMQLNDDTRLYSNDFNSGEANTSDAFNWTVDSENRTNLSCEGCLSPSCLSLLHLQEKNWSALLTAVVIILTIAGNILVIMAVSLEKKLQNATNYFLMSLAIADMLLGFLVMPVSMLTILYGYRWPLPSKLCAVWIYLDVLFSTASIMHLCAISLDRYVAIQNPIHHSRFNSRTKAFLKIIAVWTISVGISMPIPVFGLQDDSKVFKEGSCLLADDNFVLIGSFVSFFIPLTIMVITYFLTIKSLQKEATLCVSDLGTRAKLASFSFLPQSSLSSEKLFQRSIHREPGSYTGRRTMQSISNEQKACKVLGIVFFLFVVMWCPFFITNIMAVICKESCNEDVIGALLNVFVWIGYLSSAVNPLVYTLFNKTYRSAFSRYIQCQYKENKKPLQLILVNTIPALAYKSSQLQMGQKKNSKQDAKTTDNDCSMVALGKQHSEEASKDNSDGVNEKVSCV

Regarding `C/C(=C\n1c2c(c3cc(C)ccc31)CN(C)CC2)c1ccc(C)nc1` [compound 85, (E)-2,3,4,5-tetrahydro-2,8-dimethyl-5-(2-(6-methylpyridin-3-yl)prop-1-enyl)-1H-pyrido[4,3-b]indole], the inhibition at 0.1 µM in assay [1] turned out to be 92%; in assay [3] (read-out: Inhibition of ligand binding, Serotonin 5-HT2A (percent inhibition of specific binding), compound at 0.1 μM), 88%; in assay [6] (compound at 0.1 μM, read-out: Inhibition of ligand binding, Serotonin 5-HT6 (percent inhibition of specific binding)), 22%. For the same molecule, the “Histamine Binding (1 μM) H1, percent inhibition of specific binding” value on histamine receptor H1 [2] (1 μM) is listed as 13%. The inhibition at 1 µM at histamine receptor H1 [2] (read-out: Histamine Binding (1 μM) H1, percent inhibition of specific binding, 1 μM) was determined as 9%; in assay [4] (read-out: Inhibition of ligand binding, Dopamine D2L) it was 43%; in assay [6] (compound at 1 μM, read-out: Inhibition of ligand binding, Serotonin 5-HT6 (percent inhibition of specific binding)), 68%. Moreover, the “Inhibition of ligand binding, Serotonin 5-HT2A (percent inhibition of specific binding)” value in assay [3] (compound at 0.1 μM, 0.1 µM) stood at 98%. For the same molecule, the “Inhibition of ligand binding, Dopamine D2L” value in assay [4] (1 µM) came out at 57%. The “binding affinity to H1” value on histamine receptor H1 [5] is reported as “lower binding affinity to H1”. For the same molecule, the “Inhibition of ligand binding, Serotonin 5-HT6 (percent inhibition of specific binding)” value in assay [6] (compound at 0.1 μM, 0.1 µM) amounted to 19%.
